Source: patent US20080125377A1, “DELIVERY SYSTEM FOR ANTIANGIOGENIC AND ANTIINFLAMMATORY PHARMACEUTICALS AND METHOD OF USE” (priority 2006, published 2008)
“Also recorded” adds a separate entry of the source.

Tests used:
[1] = tested on: Human retinal endothelial cells (HREC); assay: Network formation assay in Matrigel, human retinal endothelial cells (HREC); type: cell-based; conditions: 1% FBS-RF6A medium, 20 ng/ml rhVEGF, 24 hours, approximate, read-out: ED50, inhibition of network formation of human retinal endothelial cells in Matrigel
Protocol: Evaluation of Efficacy of BOL-303213-X In Human Retinal Endothelial Cells (HREC) Using the Network Formation Assay in Matrigel.
Objective: This study was conducted to evaluate the ability of a novel tyrosine kinase inhibitor, BOL-303213-X, to prevent vascular endothelial cell network formation in an in vitro angiogenesis model—network formation assay in Matrigel.
Methods: Human retinal vascular endothelial cells were isolated and cultured from human donor eyes and characterized by Dio-Ac-LDL uptake. Cell network formation was evaluated after these cells were cultured in Matrigel in 1% FBS-RF6A medium with 20 ng/ml rhVEGF and various doses of BOL-303213-X (30, 60, 200, 600 and 1200 nM) for 24 hours. Cell isolates and cultures from three separated donors were used. The total cell network areas were computed by an image analysis software.

[2] = tested on: human retinal endothelial cells; assay: Vascular endothelial cell proliferation (cell viability assay kit), human retinal endothelial cells; type: cell-based; conditions: dose-dependent
Protocol: (§1) Objective: The present study was conducted to evaluate the ability of a novel tyrosine kinase inhibitor, BOL-303213-X, to prevent vascular endothelial cell proliferation in vitro using human retinal, choroidal, and dermal microvascular endothelial cells, as well as bovine retinal endothelial cells. Inhibition of outgrowths in a human choroid explant assay was also used to evaluate BOL-303213-X activity in a more complex multi-cellular angiogenesis ex vivo model. Furthermore, caspase-3/7 and lactate dehydrogenase (LDH) activities were also determined following treatment of human retinal and choroidal endothelial cells with BOL-303213-X as a preliminary measure of cytotoxicity. Methods: Human retinal and choroidal vascular endothelial cells were isolated and cultured from human donor eyes. Human dermal microvascular endothelial cells and bovine retinal endothelial cells were purchased from commercial sources. Vascular endothelial cell proliferation was measured by comparing the number of viable cells using a commercial cell viability assay kit. Inhibition of choroid outgrowths was evaluated in a human explant assay. Caspase-3/7 and LDH activities were utilized to assess cytotoxicity.

[3] = tested on: human choroidal endothelial cells; assay: Vascular endothelial cell proliferation (cell viability assay kit), human choroidal endothelial cells; type: cell-based; conditions: dose-dependent
Protocol: as §1

[4] = tested on: human dermal microvascular endothelial cells; assay: Vascular endothelial cell proliferation (cell viability assay kit), human dermal microvascular endothelial cells; type: cell-based; conditions: dose-dependent
Protocol: as §1

[5] = tested on: bovine retinal endothelial cells; assay: Vascular endothelial cell proliferation (cell viability assay kit), bovine retinal endothelial cells; type: cell-based; conditions: dose-dependent
Protocol: as §1

[6] = tested on: human choroid explant outgrowths; assay: Human choroid explant outgrowth assay (ex vivo); type: cell-based; conditions: human choroidal outgrowth assay
Protocol: as §1

[7] = tested on: human retinal endothelial cells; assay: Cytotoxicity (caspase-3/7 and LDH activities), confluent human retinal endothelial cells; type: cell-based; conditions: range of concentrations used for efficacy testing
Protocol: as §1

[8] = tested on: human choroidal endothelial cells; assay: Cytotoxicity (caspase-3/7 and LDH activities), confluent human choroidal endothelial cells; type: cell-based; conditions: range of concentrations used for efficacy testing
Protocol: as §1

[9] = tested on: rhVEGF165-induced blood-retinal barrier breakdown; assay: Blood-retinal barrier breakdown induced by rhVEGF165 in pigmented rabbits (vitreous fluorophotometry); type: in vivo
Protocol: (§2) To expand the efficacy observation of BOL-303213-X in non-ocular system, an ocular efficacy study was conducted in rabbits that included ocular observations to evaluate tolerance of intravitreal administration of BOL-303213-X in hydroxypropyl methylcellulose (HPMC). A rabbit model of blood-retinal barrier (BRB) breakdown induced by intravitreal administration of recombinant human vascular endothelial growth factor (rhVEGF) was used. This model mimics pathologic situations such as macular edema, in which VEGF contributes to increased retinal vascular permeability resulting in edema. In this study 30 μg BOL-303213-X in 50 μl of HPMC was given 3 or 5 days before the VEGF challenge with the evaluation of the BRB integrity also at 2 days after the VEGF challenge.
BOL-303213-X/HPMC Suspension: Evaluation of Efficacy in Pigmented Rabbits Using a Model of Blood-Retinal Barrier Breakdown Induced by VEGF.
Purpose: The aim of this study was to evaluate the efficacy of BOL-303213-X (30 μg) in hydroxypropyl methylcellulose (HPMC) suspension in pigmented rabbits using a model of blood-retinal barrier breakdown induced by rhVEGF 165.
(§3) Methods: Eighty four (84) pigmented rabbits were allocated into 8 groups: three groups were given an intravitreal injection (50 μl) of BOL-303213-X (30 μg) in HPMC, three groups were given an intravitreal injection of HPMC vehicle and two groups were given no treatment. The rhVEGF 165 challenge was performed three days after the treatment injection to three groups (BOL-303213-X-treated, vehicle-treated, and untreated). The rhVEGF 165 challenge was also performed at five days after the treatment injection to four groups (BOL-303213-X-treated, vehicle-treated (n=2), and untreated). One group served as control for the tolerability of BOL-303213-X injection. Breakdown of the blood-retinal barrier was evaluated 24 h (one vehicle-treated group) and 48 h (the other six groups) after rhVEGF 165 challenge by fluorescein leakage from retinal vasculature into the vitreous using non-invasive scanning ocular fluorophotometry. Assessment of tolerability was evaluated by slit-lamp examination, laser flare measurements (LFM) of anterior chamber using a laser flare meter, intraocular pressure (IOP) measurements using a pneumotonometer and vitreo-retinal fluorophotometry. These examinations were performed before injection, before the rhVEGF165 challenge and the day of euthanasia. Results: The general behavior of animals was not altered by the treatment. […] No relevant complications were found during the clinical follow-up.

[10] = Ocular tolerability in the rabbit VEGF efficacy study (slit-lamp, laser flare, IOP); type: in vivo
Protocol: as §2, §3

[11] = tested on: laser-induced choroidal neovascularization; assay: Laser-induced choroidal neovascularization in cynomolgus monkeys (fluorescein angiography grading); type: in vivo, cynomolgus monkeys (Macaca fascicularis)
Excerpt: BOL-303213-X/HPMC Suspension: Evaluation of Efficacy in Monkeys Using a Laser-Induced Choroidal Neovasuclarization Model.
Purpose: This study was done to qualitatively evaluate the potential inhibitory effect of BOL-303213-X on laser-induced choroidal neovascularization in cynomolgus monkeys when administered biweekly by intravitreal injection beginning at the time of laser treatment.
Methods: Eight cynomolgus monkeys (Macaca fascicularis) were used in this study. The animals were assigned to the study using a computerized procedure designed to achieve body weight balance with respect to groups. The animals were anesthetized with ketamine and xylazine and the eyes dilated with a mydriatic. The macula of both eyes of each animal received laser photocoagulation treatment using a 532 nm diode green laser and slit lamp delivery system and a plano fundus contact lens. This is a standard method for inducing choroidal neovascularization. Nine areas were symmetrically placed in the macula of each eye. The laser parameters included a 75 micron spot size, 0.1 second duration at power settings ranging from 400 to 750 mW. […] Fuorescein angiograms were evaluated according to the following grading system for evidence of excessive permeability (i.e. fluorescein leakage). […]

[12] = Ocular tolerability following a single intravitreal administration in pigmented rabbits; type: in vivo
Protocol: BOL-303213-X In HPMC Suspension. Evaluation of Ocular Tolerability Following a Single Intravitreal Administration in Pigmented Rabbits.
Purpose: The aims of this study were to determine the ocular tolerability and pharmacokinetics of BOL-303213-X in Hydroxy Propyl Methyl Cellulose (HPMC) suspension after a single intravitreal injection at 4 doses: 10, 15, 20 and 30 μg.
Methods: One hundred and two rabbits were allocated into four-dose groups (group 1: 10 μg, group 2: 15 μg, group 3: 20 μg and group 4: 30 μg of BOL-303213-X in HPMC suspension) and one control group (HPMC). Each group was divided in four time-points (15 min, Days 1, 3 and 5) except the control group (one time-point: Day 5). Each animal received an intravitreal injection of test article (50 μl) in the right eye. Tolerability was evaluated by slit lamp examination, anterior chamber inflammation (flare) by laser flare measurements (LFM), intraocular pressure measurements and integrity of the blood retinal barrier (BRB) by vitreous fluorophotometry. These examinations were performed before injection and, on Days 1, 3 and 5. Results: The general behavior of animals was not altered by the treatment. […] No relevant complications were found during the clinical follow-up. […] The blood-retinal barrier was not affected by the different injections. […] There was no difference in IOP between the BOL-303213-X injected and control eyes at any time points.

[13] = Tolerability of intravitreal BOL-303213-X in HPMC in cats; type: in vivo; conditions: intravitreal 10 μg in HPMC, statement also covers four pharmacokinetic studies, visible aggregates in vitreous in certain studies
[14] = 10-30 μg in HPMC, single intravitreal injection

**Q.** What does the source list for CC(C)Cn1c2ccc(Nc3ncccn3)cc2c2c3c(c4c(c21)CCc1nn(C)cc1-4)C(=O)NC3 [BOL-303213-X]?
**A.** EC50 [1]: ~0.18 µM; Inhibition of proliferation [2]: inhibited proliferation; Inhibition of proliferation [3]: inhibited proliferation; Inhibition of proliferation [4]: inhibited proliferation; Inhibition of proliferation [5]: inhibited proliferation; Inhibition of choroid outgrowths [6]: effective in inhibiting choroid outgrowths; Caspase-3/7 activity [7]: no significant increase; LDH activity [7]: no significant increase; Caspase-3/7 activity [8]: no significant increase; LDH activity [8]: no significant increase; Effect on VEGF-induced retinal vascular permeability / blood-retinal barrier breakdown (in words) ([9]; 30 μg in 50 μl HPMC intravitreal, 3 days before VEGF challenge): significantly reduced; also recorded: effective at blocking; Inhibition of vitreous fluorescein leakage vs rhVEGF165 plus HPMC vehicle ([9]; 30 μg in 50 μl HPMC intravitreal, 3 days before rhVEGF165 challenge, read 48 h after challenge, p=0.04): 52.7%; Vitreous fluorescein leakage (mean±SD, n=12) ([9]; 30 μg in HPMC intravitreal, 3 days before rhVEGF165 challenge, read 48 h after challenge): 8,458.8±7,067.4; Vitreous fluorescein leakage (mean±SD, n=12) ([9]; 30 μg in HPMC intravitreal, 5 days before rhVEGF165 challenge): 15,228.2±10,364.6; Inhibition of vitreous fluorescein leakage vs vehicle ([9]; 30 μg in HPMC intravitreal, 5 days before rhVEGF165 challenge, trend, not statistically significant (p>0.05)): 57.7%; Ocular tolerance observations ([10]; 30 μg in 50 μl HPMC intravitreal, except some eyes with blurred vitreous): no observed tolerance concerns; Body weights of the animals ([10]; 30 μg in HPMC, intravitreal): within a normal range; General behavior of animals ([10]; 30 μg in HPMC, intravitreal): not altered; Toxicity by slit-lamp examination, laser flare and IOP measurements ([10]; 30 μg in HPMC, single intravitreal injection): no evidence of toxicity; Overall safety conclusion ([10]; HPMC suspension at 30 μg-dose, normal pigmented rabbits): appeared to be safe; Percent of grade IV lesions vs HPMC-vehicle contralateral eye ([11]; 45 μg in HPMC intravitreal after laser and two weeks post-laser, 2, 3 and 4 weeks post-laser): consistently lower; Inhibition of choroidal neovascularization (in words) ([11]; 45 μg in HPMC suspension, injected after laser challenge): effective at inhibiting choroidal neovascularization; Toxicity by clinical examination, laser flare and IOP measurements ([12]; 10, 15, 20, 30 μg in HPMC, single intravitreal injection 50 μl): no evidence of toxicity; Clinical observation in the vitreous following the intravitreal injection ([12]; 10-30 μg in HPMC suspension): small aggregate of drug precipitates; Blood-retinal barrier integrity (vitreous fluorophotometry) [12, 14]: not affected; Body weights of the animals [12, 14]: within a normal range; General behavior of animals [12, 14]: not altered; Anterior chamber inflammation ([12]; 1 day after the injection, not dose-dependent): transient anterior inflammation; Animals with some inflammatory cells in the vitreous cavity at fundus examination ([12]; Day 5, at least 1 animal of each group (control group included)): 9 rabbits out of 30; Overall safety conclusion ([12]; HPMC suspension at 10, 15, 20 and 30 μg-doses, normal pigmented rabbit): appeared to be safe; IOP, injected vs control eyes ([12]; any time points): no difference; Ocular tolerability [13]: no major ocular tolerance concerns
